From US10933038B2, “Use of (benzenesulfonamido) benzamide compounds for inhibiting liver fibrosis” (Hebei Medfaith Pharmaceutical Technology Co., Ltd., priority 2015, dated 2021) come the findings set out here.

Series [1] has as its system BDL model rat. Description: serum liver function in BDL model rat. It counts as in vivo. Particulars: 100 mg/kg i.p. once a day for 14 days. The procedure:
(§1) SD male rats (with a body weight of 180-200 g) were randomly divided into sham operation group, BDL model group and 16-4 administration group, wherein sham operation group included 6 rats, BDL model group included 8 rats, and 16-4 administration group included 6 rats. Animals were fasted for 12 hours before surgery. After anesthetization with isoflurane, the abdomen of rat was opened under aseptic conditions, the liver was lifted, the duodenum was pulled aside, and 2-3 cm common bile duct was separate. Ligations were performed twice with silk thread No. 000 at the place proximal to duodenum and the place proximal to porta hepatis, respectively. The common bile duct was cut off at the middle of the two ligation places. After the liver was put back, the cut was sutured. In sham operation group, the abdomen was just opened, and then sutured. After recovery from anesthesia, the animals were subjected to normal diet, with free access to water. 2 days after surgery, the compound 16-4 (100 mg/kg) was intraperitoneally injected to 16-4 administration group, and normal saline was intraperitoneally injected to sham operation group and BDL model group, once a day. After administration for 14 days, samples such as urine, blood, bile, liver, kidney and ileum were collected from the animals after being fasted for 12 hours.
Blood samples were taken from rats of each group in Example 6, and the rats were fasted for 12 h before taking samples. The rats were anesthetized with 10% chloral hydrate, and blood was collected via aorta ventralis, on standing at room temperature for 1 h, and centrifuged at 3000 rpm for 5 min. The serum was tested for serum biochemical indexes.

Series [2] concerns BDL model rat. Description: real-time PCR of genes associated with liver fibrosis in liver tissue of BDL rats. It counts as in vivo. Particulars: 100 mg/kg i.p., 14 days. As for the experimental part:
as §1, with “2 days after surgery, the compound 16-4 (100 mg/kg) was intraperitoneally injected to 16-4 administration group, and normal saline was intraperitoneally injected to sham operation group and BDL model group, once a day. After administration for 14 days, samples such as urine, blood, bile, liver, kidney and ileum were collected from the animals after being fasted for 12 hours.” left out
Liver tissues (80-100 mg) were taken from the rats of each group in Example 6, and 1 mL TRizol was added. […] The cDNA obtained, sterile water, Roche FastStart Universal Probe Master (Rox) and ABI TaqMan probes were used to prepare a 20 μL reaction system, which was analyzed by ABI 7500 Fast Real-Time PCR System.
(Real-time PCR tracks product formation cycle by cycle.)

Series [3] relates to TGF-β1-induced LX2 cells. Nature of the series: real-time PCR assay in TGF-β1-induced LX2 cells. It counts as cell-based, human. Particulars: TGF-β1 (2 ng/ml)-induced LX2 cells, 1, 5 and 10 μmmol/L, 24 h. The procedure:
(§2) In DMEM (Gibco) medium containing 10% fetal bovine serum, LX2 cells were cultured at 37° C., 5% CO2. The cells were spread on a 6-well plate at 1×10^5 cells per well. After culture for 24 h, the original medium was discarded, the cells were washed with PBS once, and DMEM (Gibco) medium without 10% fetal bovine serum was added. […] After further culture for 24 h, the samples were taken.
In accordance with the TRizol method, the total RNA in LX2 cells were extracted, and in accordance with the operations described in the instruction of Roche Transcriptor First Strand cDNA Synthesis Kit, the total RNA of LX2 was reverse transcribed into cDNA. The cDNA obtained, sterile water, Roche FastStart Universal Probe Master (Rox) and ABI TaqMan probes (COL1A1, TGF-β1, MMP2) were used to prepare a 20 μL reaction system, which was analyzed by ABI 7500 Fast Real-Time PCR System.

Series [4] relates to BDL model rat. Nature of the series: Masson staining of liver tissue of BDL rats. Particulars: 100 mg/kg i.p., 14 days. It counts as in vivo. The procedure:
as §1, with “hours. […]” for “hours.”

Series [5] deals with BDL model rat. Description: hydroxyproline content in liver tissue of BDL rats. It counts as in vivo. Particulars: 100 mg/kg i.p., 14 days. The procedure:
as §1, with “2 days after surgery, the compound 16-4 (100 mg/kg) was intraperitoneally injected to 16-4 administration group, and normal saline was intraperitoneally injected to sham operation group and BDL model group, once a day. After administration for 14 days, samples such as urine, blood, bile, liver, kidney and ileum were collected from the animals after being fasted for 12 hours.” left out
(2) Hydroxyproline is specific to collagen fibrils, and the content of hydroxyproline can reflect the extent of liver fibrosis. Liver tissue samples (80-100 mg) were taken from the rats of each group in Example 6, and in accordance with the instruction of Hydroxyproline Assay Kit (purchased from Nanjing Jiancheng Bioengineering Institute), the content of hydroxyproline in the liver tissues was determined.

Series [6] deals with ANIT-induced liver injury. Description: alpha-naphthylisothiocyanate (ANIT)-induced liver injury model, HE staining. It counts as in vivo, mouse. Particulars: 400 mg/kg intragastric, ANIT 75 mg/kg, 48 h after induction. As for the experimental part:
After further administration for 2 days (i.e. after induction with ANIT for 48 h), liver tissues were harvested, and subjected to pathological section and HE staining.

Series [7] has as its system BDL model rat. Nature of the series: HE staining of liver tissue of BDL rats. Particulars: 100 mg/kg i.p., 14 days. It counts as in vivo. As for the experimental part: as §1
The liver tissue samples were taken from rats of each group in Example 6, and the rats were fasted for 12 hours before taking samples. The rats were anesthetized with 10% chloral hydrate and the liver tissue was taken. The hepatic lobar tissue blocks were cut off and fixed in 4% neutral formaldehyde solution. By carrying out the steps such as dehydration, paraffin embedding, slicing and baking, paraffin slices were made. Hematoxylin-eosin (HE) staining solution was used for staining, and changes in pathological structure of rat liver tissue were observed.

The test system of a further series is Kunming mice. Description: safety in Kunming mice, single intragastric dose, 14 days observation. It counts as in vivo. Particulars: 50-2000 mg/kg; for change in body weight (relative body weight Day 14/Day 1): 14 days after administration; for death / signs of intoxication: 14 days observation. The procedure:
In the example, the compounds 16-4 and 17-15 were tested for their safety in Kunming mice.
Kunming mice (with a body weight of 18-22 g) were randomly divided into control group, 16-4 administration group, and 17-15 administration group, with 4 mice for each group, administered at a dose of 0 mg/kg, 50 mg/kg, 500 mg/kg, 1000 mg/kg and 2000 mg/kg. At the first day of experiment, drugs were intragastrically administered to 16-4 administration group and 17-15 administration group, and normal saline was administered to control group. The body weight and physical conditions of mice (for example, being short of breath or not, having bleeding spots in skin or not, etc.) and whether mice died or not were recorded every day. After observation for 14 days, the mice were sacrificed.

Series [8] concerns TGF-β1-induced LX2 cells. Description: Western blot assay in TGF-β1-induced LX2 cells. Particulars: TGF-β1 (2 ng/ml)-induced LX2 cells, 1, 5 and 10 μmmol/L, 24 h. It counts as cell-based, human. The procedure: as §2
Proteins in LX2 cells were extracted with RAPI lysis solution (containing 1% PMSF), and the protein concentration was determined by BCA method. The sample was loaded at 20 μg/20 μL, subjected to polyacrylamide gel electrophoresis, transferred to a membrane, blocked with 5% skim milk, incubated with a primary antibody, washed with PBST, incubated with a secondary antibody, and imaged with ChemiImager 5500 imaging system.
Background: Immunoblotting shows a protein as a band on a membrane.

A further series relates to COL1A1 promoter. Description: dual-luciferase reporter assay of COL1A1 promoter activity in LX2 cells. It counts as cell-based, human. Particulars: TGF-β1 2 ng/ml, 1, 5 and 10 μmol/L, 24 h. As for the experimental part:
At 37° C., 5% CO2, human hepatic stellate cells LX2 were cultured in DMEM medium containing 10% fetal bovine serum (Gibco). After the cells reached a confluence of about 95%, the cells were spread onto a 96-well plate at 2×10^4 cells per well. After the cells reached a confluence of about 90%, the cells were subjected to serum-free culture in DMEM medium (Gibco) containing no fetal bovine serum for 24 h. […] The cells were further cultured for 24 h. In accordance with the operations described in the instruction of Dual-Glo™ Luciferase Assay System, the medium was discarded, and the cells were washed with PBS once. Cells were lysed by the addition of 1×PLB (20 μL/well) (within 15 min), luciferase substrate (50 μL/well) was added for assay, and a stop solution (50 μL/well) was added for assay.
For orientation: A reporter such as luciferase makes a cellular process visible.

Series [9] relates to BDL model rat. Description: Western blot of proteins associated with liver fibrosis in liver tissue of BDL rats. Particulars: 100 mg/kg i.p., 14 days. It counts as in vivo. The procedure:
as §1, with “After administration for 14 days, samples such as urine, blood, bile, liver, kidney and ileum were collected from the animals after being fasted for 12 hours.” left out
Liver tissues (80-100 mg) were taken from the rats of each group in Example 6, and 1 mL RAPI lysis solution (containing 1% PMSF) was added. […] The supernatant was taken, and the protein concentration was determined by BCA method. […]

As for `O=C(Nc1cc(Cl)c(Cl)c(Cl)c1)c1ccccc1NS(=O)(=O)c1cccc([N+](=O)[O-])c1` [16-4, N-(3,4,5-trichlorophenyl)-2-(3-nitrobenzenesulfonamido) benzamide], the “liver function of BDL rats” value in the series with BDL model rat [1] is reported as “could improve the liver function”. Moreover, in the series on BDL model rat [1] (serum, BDL rat, n = 6), the “alanine aminotransferase ALT” value turned out to be 68.20 ± 11.86 U/L, the “alkaline phosphatase ALP” value amounted to 383.60 ± 56.45 U/L and the “γ-glutamyltransferase γ-GGT” value was 27.40 ± 10.26 U/L. In the series with BDL model rat [2], the “expression of genes associated with liver fibrosis (COL1A1, TGF-β1, MMP2, α-SMA (ACTA2), TIMP1, TIMP2 and SPP1)” value was “significantly reduce”. Also, the “expression levels of mRNA of COL1A1, TGF-β1 and MMP2” value in the series with TGF-β1-induced LX2 cells [3] is “significantly inhibit”. In addition, the “fibrosis of liver tissues (Masson staining)” value in the series on BDL model rat [4] was “significantly inhibit the fibrosis of liver tissues”. For the same compound, the “content of hydroxyproline in rat liver tissues” value in the series on BDL model rat [5] was “significantly reduce”. The “liver injury (HE staining of liver tissue slices) compared to ANIT-induced group” value in [6] is “had the liver injury improved”. In the series on BDL model rat [7], the bile duct proliferation result was “significantly inhibited bile duct proliferation”, the “pathological structure of the liver tissues” value is “significantly improve” and the tissue necrosis entry is given as “significantly reduced tissue necrosis”. Also, in the series on Kunming mice, the “change in body weight (relative body weight Day 14/Day 1)” value is reported as “no significant decrease in body weight”, the death entry was “no death occurred” and the signs of intoxication entry is “no signs of intoxication were observed”. The “expression of COL1A1, TGF-β1, MMP2 and α-SMA protein” value (“expression of COL1A1, TGF-β1” below) with TGF-β1-induced LX2 cells [8] is given as “significantly inhibit”. In addition, the “activity of COL1A1 promoter (relative luciferase activity)” value in the series on COL1A1 promoter is given as “inhibit the activity of COL1A1 promoter in a dose-dependent manner”. The “expression of COL1A1, TGF-β1” value in the series with BDL model rat [9] is “significantly inhibit”.

Regarding `O=C(Nc1ccc(Cl)c(Cl)c1)c1ccccc1NS(=O)(=O)c1cccc(OC(F)(F)F)c1` [17-15, N-(3,4-dichlorophenyl)-2-(3-trifluoromethoxybenzenesulfonamido) benzamide], the “expression levels of mRNA of COL1A1, TGF-β1 and MMP2” value in the series on TGF-β1-induced LX2 cells [3] is given as “significantly inhibit”. In the series on Kunming mice, the “change in body weight (relative body weight Day 14/Day 1)” value is “no significant decrease in body weight”, the death entry was “no death occurred” and the signs of intoxication result was “no signs of intoxication were observed”. Besides, the “expression of COL1A1, TGF-β1” value in the series with TGF-β1-induced LX2 cells [8] is listed as “significantly inhibit”. The “activity of COL1A1 promoter (relative luciferase activity)” value with COL1A1 promoter is “inhibit the activity of COL1A1 promoter in a dose-dependent manner”.
